Source: PubChem BioAssay (NCI)
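Protocol summary: plate cells (96-well), add compound at 5 concentrations, incubate 48 h, interpolate endpoints linearly. TGI: total growth inhibition.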

Columns and labels:
Assay in all cases: DTP human tumour cell line panel, 48 h
TK-10 renal = system: TK-10 renal
HOP-18 NSCLC = system: HOP-18 NSCLC
786-0 renal = system: 786-0 renal
SNB-75 CNS = system: SNB-75 CNS
RXF 393 renal = system: RXF 393 renal
COLO 205 colon = system: COLO 205 colon
NCI-H226 lung = system: NCI-H226 lung
UO-31 renal = system: UO-31 renal
NCI-H23 lung = system: NCI-H23 lung
A498 renal = system: A498 renal
M19-MEL melanoma = system: M19-MEL melanoma
UACC-257 melanoma = system: UACC-257 melanoma
SK-MEL-2 melanoma = system: SK-MEL-2 melanoma
KM12 colon = system: KM12 colon
SW-620 colon = system: SW-620 colon
SK-OV-3 ovarian = system: SK-OV-3 ovarian
KM20L2 colon = system: KM20L2 colon
IGROV1 ovarian = system: IGROV1 ovarian
HCC-2998 colon = system: HCC-2998 colon
DLD-1 colon = system: DLD-1 colon
SK-MEL-5 melanoma = system: SK-MEL-5 melanoma
SF-539 CNS = system: SF-539 CNS
K-562 leukemia = system: K-562 leukemia
MOLT-4 leukemia = system: MOLT-4 leukemia
LOX IMVI melanoma = system: LOX IMVI melanoma
NCI-H522 lung = system: NCI-H522 lung
U251 CNS = system: U251 CNS
SF-268 CNS = system: SF-268 CNS
SNB-19 CNS = system: SNB-19 CNS
HL-60(TB) leukemia = system: HL-60(TB) leukemia
MALME-3M melanoma = system: MALME-3M melanoma
A549 NSCLC = system: A549 NSCLC
LXFL 529 NSCLC = system: LXFL 529 NSCLC
SN12C renal = system: SN12C renal
SF-295 CNS = system: SF-295 CNS
OVCAR-5 ovarian = system: OVCAR-5 ovarian
CCRF-CEM leukemia = system: CCRF-CEM leukemia
NCI-H460 lung = system: NCI-H460 lung
CAKI-1 renal = system: CAKI-1 renal
HCT-116 colon = system: HCT-116 colon
HCT-15 colon = system: HCT-15 colon
DMS 273 small cell lung = system: DMS 273 small cell lung
HOP-62 NSCLC = system: HOP-62 NSCLC
RPMI-8226 leukemia = system: RPMI-8226 leukemia
OVCAR-3 ovarian = system: OVCAR-3 ovarian
HT29 colon = system: HT29 colon
SK-MEL-28 melanoma = system: SK-MEL-28 melanoma
SNB-78 CNS = system: SNB-78 CNS
DMS 114 small cell lung = system: DMS 114 small cell lung
M14 melanoma = system: M14 melanoma
ACHN renal = system: ACHN renal
OVCAR-8 ovarian = system: OVCAR-8 ovarian
OVCAR-4 ovarian = system: OVCAR-4 ovarian
SR leukemia = system: SR leukemia
XF 498 CNS = system: XF 498 CNS
UACC-62 melanoma = system: UACC-62 melanoma
HOP-92 NSCLC = system: HOP-92 NSCLC
EKVX NSCLC = system: EKVX NSCLC

CCN(CC)c1ccc(Cl)c2c1C(O)(C(C)C)C2(C)C (stereo not given)
TGI (TK-10 renal): 30.2 µM
TGI (HOP-18 NSCLC): 27.3 µM
TGI (786-0 renal): 27.7 µM
TGI (SNB-75 CNS): 32 µM
TGI (RXF 393 renal): 29.7 µM
TGI (COLO 205 colon): 28.9 µM
TGI (NCI-H226 lung): 33.6 µM
TGI (UO-31 renal): 32 µM
TGI (NCI-H23 lung): 29 µM
TGI (A498 renal): 35.7 µM
TGI (M19-MEL melanoma): 29.4 µM
TGI (UACC-257 melanoma): 27.6 µM
TGI (SK-MEL-2 melanoma): 29.4 µM
TGI (KM12 colon): 28.4 µM
TGI (SW-620 colon): 32.6 µM
TGI (SK-OV-3 ovarian): 29.3 µM
TGI (KM20L2 colon): 27.8 µM
TGI (IGROV1 ovarian): 27.8 µM
TGI (HCC-2998 colon): 30.3 µM
TGI (DLD-1 colon): 31.4 µM
TGI (SK-MEL-5 melanoma): 28.8 µM
TGI (SF-539 CNS): 34.2 µM
TGI (K-562 leukemia): 43.9 µM
TGI (MOLT-4 leukemia): 35.8 µM
TGI (LOX IMVI melanoma): 35.1 µM
TGI (NCI-H522 lung): 29.9 µM
TGI (U251 CNS): 30.5 µM
TGI (SF-268 CNS): 44.2 µM
TGI (SNB-19 CNS): 28.7 µM
TGI (HL-60(TB) leukemia): 38.8 µM
TGI (MALME-3M melanoma): 27.4 µM
TGI (A549 NSCLC): 35.1 µM
TGI (LXFL 529 NSCLC): 31.5 µM
TGI (SN12C renal): 30.5 µM
TGI (SF-295 CNS): 33 µM
TGI (OVCAR-5 ovarian): 30.6 µM
TGI (CCRF-CEM leukemia): 39.9 µM
TGI (NCI-H460 lung): 33.9 µM
TGI (CAKI-1 renal): 34.2 µM
TGI (HCT-116 colon): 27 µM
TGI (HCT-15 colon): 44.9 µM
TGI (DMS 273 small cell lung): 29.5 µM
TGI (HOP-62 NSCLC): 39 µM
TGI (RPMI-8226 leukemia): 31.2 µM
TGI (OVCAR-3 ovarian): 25.2 µM
TGI (HT29 colon): 24.5 µM
TGI (SK-MEL-28 melanoma): 37.1 µM
TGI (SNB-78 CNS): 69.4 µM
TGI (DMS 114 small cell lung): 36.5 µM
TGI (M14 melanoma): 30.5 µM
TGI (ACHN renal): 31.3 µM
TGI (OVCAR-8 ovarian): 33.4 µM
TGI (OVCAR-4 ovarian): 33.3 µM

C=CCN1C(=O)NC(=O)/C(=C/c2c3ccccc3cc3ccccc23)C1=O
TGI (SR leukemia): 74 µM
TGI (TK-10 renal): 37.4 µM
TGI (SNB-75 CNS): 45 µM
TGI (RXF 393 renal): 34.6 µM
TGI (COLO 205 colon): 35.3 µM
TGI (NCI-H226 lung): 45.9 µM
TGI (UO-31 renal): 37 µM
TGI (NCI-H23 lung): > 10 µM
TGI (M19-MEL melanoma): > 100 µM
TGI (SK-MEL-2 melanoma): 38.7 µM
TGI (KM12 colon): 31.8 µM
TGI (SW-620 colon): > 100 µM
TGI (SK-OV-3 ovarian): 66 µM
TGI (IGROV1 ovarian): > 10 µM
TGI (HCC-2998 colon): 28.4 µM
TGI (DLD-1 colon): 44.7 µM
TGI (SK-MEL-5 melanoma): > 10 µM
TGI (SF-539 CNS): 38.1 µM
TGI (K-562 leukemia): 66.5 µM
TGI (MOLT-4 leukemia): 48.9 µM
TGI (LOX IMVI melanoma): 75.4 µM
TGI (XF 498 CNS): 40.7 µM
TGI (NCI-H522 lung): 44.8 µM
TGI (U251 CNS): 36.5 µM
TGI (UACC-62 melanoma): 50.4 µM
TGI (SF-268 CNS): 60.8 µM
TGI (SNB-19 CNS): 47.7 µM
TGI (MALME-3M melanoma): 39.3 µM
TGI (A549 NSCLC): 58.2 µM
TGI (SF-295 CNS): 38.3 µM
TGI (OVCAR-5 ovarian): 44.4 µM
TGI (CCRF-CEM leukemia): > 100 µM
TGI (NCI-H460 lung): 37 µM
TGI (HOP-92 NSCLC): 54.4 µM
TGI (CAKI-1 renal): 40.3 µM
TGI (HCT-116 colon): 30.8 µM
TGI (DMS 273 small cell lung): 43.4 µM
TGI (HOP-62 NSCLC): 33.2 µM
TGI (OVCAR-3 ovarian): 42.3 µM
TGI (HT29 colon): 37.9 µM
TGI (SK-MEL-28 melanoma): 68.1 µM
TGI (SNB-78 CNS): > 100 µM
TGI (DMS 114 small cell lung): 45.2 µM
TGI (M14 melanoma): 37.2 µM
TGI (EKVX NSCLC): 48.8 µM
TGI (OVCAR-8 ovarian): 55 µM
TGI (OVCAR-4 ovarian): 47.5 µM
